# Target: Stromelysin-1 (MMP-3)
# Assay: In vitro inhibitory activity against matrix metalloprotease-3
row,IC50,SMILES
1,175 nM,CCO[C@H]1CC[C@@](CS)(C(=O)N[C@@H](Cc2ccccc2)C(=O)Nc2ccc(OC(F)(F)F)cc2)CC1 [4-Ethoxy-1-mercaptomethyl-cyclohexanecarboxylic acid [(S)-2-phenyl-1-(4-trifluoromethoxy-phenylcarbamoyl)-ethyl]-amide]
2,113 nM,CCO[C@H]1CC[C@@](CS)(C(=O)N[C@@H](Cc2ccccc2)C(=O)Nc2ccc(Cl)cc2)CC1 [4-Ethoxy-1-mercaptomethyl-cyclohexanecarboxylic acid [(S)-1-(4-chloro-phenylcarbamoyl)-2-phenyl-ethyl]-amide]
3,139 nM,CCOc1ccc(C[C@H](NC(=O)[C@]2(CS)CC[C@H](OCC)CC2)C(=O)Nc2ccccc2)cc1 [4-Ethoxy-1-mercaptomethyl-cyclohexanecarboxylic acid [(S)-2-(4-ethoxy-phenyl)-1-phenylcarbamoyl-ethyl]-amide]
4,207 nM,CCO[C@H]1CC[C@@](CS)(C(=O)N[C@@H](Cc2ccccc2)C(=O)NCc2ccccc2)CC1 [4-Ethoxy-1-mercaptomethyl-cyclohexanecarboxylic acid ((S)-1-benzylcarbamoyl-2-phenyl-ethyl)-amide]
5,> 10000 nM,CNC(=O)[C@H](Cc1ccccc1)NC(=O)[C@]1(CS)CC[C@H](C(C)(C)C)CC1 [4-tert-Butyl-1-mercaptomethyl-cyclohexanecarboxylic acid ((S)-1-methylcarbamoyl-2-phenyl-ethyl)-amide]
6,134 nM,CCO[C@H]1CC[C@@](CS)(C(=O)N[C@@H](Cc2ccc(F)cc2)C(=O)Nc2ccccc2)CC1 [4-Ethoxy-1-mercaptomethyl-cyclohexanecarboxylic acid [(S)-2-(4-fluoro-phenyl)-1-phenylcarbamoyl-ethyl]-amide]
7,62 nM,CCO[C@H]1CC[C@@](CS)(C(=O)N[C@@H](Cc2ccc(OC)cc2)C(=O)Nc2ccccc2)CC1 [4-Ethoxy-1-mercaptomethyl-cyclohexanecarboxylic acid [(S)-2-(4-methoxy-phenyl)-1-phenylcarbamoyl-ethyl]-amide]
8,666 nM,CCO[C@H]1CC[C@@](CS)(C(=O)N[C@@H](Cc2ccccc2)C(=O)NC2CCCC2)CC1 [4-Ethoxy-1-mercaptomethyl-cyclohexanecarboxylic acid ((S)-1-cyclopentylcarbamoyl-2-phenyl-ethyl)-amide]
9,449 nM,CCO[C@H]1CC[C@@](CS)(C(=O)N[C@@H](Cc2ccccc2)C(=O)Nc2ccccn2)CC1 [4-Ethoxy-1-mercaptomethyl-cyclohexanecarboxylic acid [(S)-2-phenyl-1-(pyridin-2-ylcarbamoyl)-ethyl]-amide]
10,39 nM,CCO[C@H]1CC[C@@](CS)(C(=O)N[C@@H](Cc2ccccc2)C(=O)Nc2ccc(OC)cc2)CC1 [4-Ethoxy-1-mercaptomethyl-cyclohexanecarboxylic acid [(S)-1-(4-methoxy-phenylcarbamoyl)-2-phenyl-ethyl]-amide]
11,> 10000 nM,CNC(=O)[C@H](Cc1ccccc1)NC(=O)[C@@]1(CS)CCCC(OC)C1 (stereo partly drawn) [(R)-1-Mercaptomethyl-3-methoxy-cyclohexanecarboxylic acid ((S)-1-methylcarbamoyl-2-phenyl-ethyl)-amide]
12,9200 nM,CNC(=O)[C@H](Cc1ccccc1)NC(=O)C1(CS)CCCCC1 [1-Mercaptomethyl-cyclohexanecarboxylic acid ((S)-1-methylcarbamoyl-2-phenyl-ethyl)-amide]
13,640 nM,CCO[C@H]1CC[C@@](CS)(C(=O)N[C@@H](Cc2ccccc2)C(=O)NC)CC1 [4-Ethoxy-1-mercaptomethyl-cyclohexanecarboxylic acid ((S)-1-methylcarbamoyl-2-phenyl-ethyl)-amide]
14,617 nM,CCO[C@H]1CC[C@@](CS)(C(=O)N[C@@H](Cc2ccccc2)C(=O)NC2CCCCC2)CC1 [4-Ethoxy-1-mercaptomethyl-cyclohexanecarboxylic acid ((S)-1-cyclohexylcarbamoyl-2-phenyl-ethyl)-amide]
15,> 10000 nM,CCC[C@H]1CC[C@@](CS)(C(=O)N[C@@H](Cc2ccccc2)C(=O)NC)CC1 [1-Mercaptomethyl-4-propyl-cyclohexanecarboxylic acid ((S)-1-methylcarbamoyl-2-phenyl-ethyl)-amide]

# Reference: BindingDB's records for doi:10.1016/s0960-894x(98)00716-1 (Novartis Biomedical Research Institute, 1999)
